Common to all, as to type: in vivo
The subject of test [1] is Alopecurus myosuroides (ALOMY). The test can be described thus: Example A pre-emergence herbicidal glasshouse test. The settings on record: 312 h, Rate 250 g/ha, evaluated after 13 days, 100=total damage to plant, 0=no damage to plant. The method in brief: (§1)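 Pots, standard soil; spray at day 1 (pre) or day 8 (post); a.i. formulated in acetone/water 50:50 + 0.5% Tween 20; 24/16 °C, 14 h light, 65% RH, watered twice daily; visual rating at 13 d (0 = no damage, 100 = total damage).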

Test [2] concerns Amaranthus retroflexus (AMARE). Briefly: Example A pre-emergence herbicidal glasshouse test. The settings on record: 312 h, Rate 250 g/ha, evaluated after 13 days, 100=total damage to plant, 0=no damage to plant. In a few lines: as §1
Test [3] relates to Avena fatua (AVEFA). Briefly: Example A pre-emergence herbicidal glasshouse test. The settings on record: 312 h, Rate 250 g/ha, evaluated after 13 days, 100=total damage to plant, 0=no damage to plant. The method in brief: as §1
The test system of test [4] is Echinochloa crus-galli (ECHCG). Briefly: Example A pre-emergence herbicidal glasshouse test. The settings on record: 312 h, Rate 250 g/ha, evaluated after 13 days, 100=total damage to plant, 0=no damage to plant. In a few lines: as §1
The test system of test [5] is Setaria faberi (SETFA). The test can be described thus: Example A pre-emergence herbicidal glasshouse test. The settings on record: 312 h, Rate 250 g/ha, evaluated after 13 days, 100=total damage to plant, 0=no damage to plant. The method in brief: as §1
Test [6] relates to Alopecurus myosuroides (ALOMY). The test can be described thus: Example A post-emergence herbicidal glasshouse test. The settings on record: 312 h, evaluated after 13 days, 100=total damage to plant, 0=no damage. The method in brief: as §1
In test [7] the test system is Amaranthus retroflexus (AMARE). The test is described as above. The settings on record: 312 h, evaluated after 13 days, 100=total damage to plant, 0=no damage. The method in brief: as §1
For test [8], the system named is Avena fatua (AVEFA). Described as above. The settings on record: 312 h, evaluated after 13 days, 100=total damage to plant, 0=no damage. In a few lines:
as §1

The subject of test [9] is Echinochloa crus-galli (ECHCG). The description is as above. The settings on record: 312 h, evaluated after 13 days, 100=total damage to plant, 0=no damage. In a few lines:
as §1

The test system of test [10] is Setaria faberi (SETFA). Described as above. The settings on record: 312 h, evaluated after 13 days, 100=total damage to plant, 0=no damage. In a few lines:
as §1

Test [11] has as its system Alopecurus myosuroides (ALOMY). Briefly: Example B pre-emergence herbicidal greenhouse test. The settings on record: 480 h, evaluated after 20 days, 100=total damage to plant, 0=no damage. The method in brief: (§2)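 Pots sown with test species were sprayed 1 day after sowing (pre-emergence) or at 10 days post-sowing (post-emergence) with the technical ingredient dissolved in acetone and diluted via emulsifier/solvent formulation. After 20 days (pre) or 15 days (post), effect was rated from 0 (no damage) to 100 (total damage).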

For test [12], the system named is Avena fatua (AVEFA). The test can be described thus: Example B pre-emergence herbicidal greenhouse test. The settings on record: 480 h, evaluated after 20 days, 100=total damage to plant, 0=no damage. In a few lines:
as §2

Test [13] relates to Digitaria sanguinalis (DIGSA). The test can be described thus: Example B pre-emergence herbicidal greenhouse test. The settings on record: 480 h, evaluated after 20 days, 100=total damage to plant, 0=no damage. In a few lines:
as §2

Test [14] has as its system Echinochloa crus-galli (ECHCG). The test can be described thus: Example B pre-emergence herbicidal greenhouse test. The settings on record: 480 h, evaluated after 20 days, 100=total damage to plant, 0=no damage. The method in brief: as §2
Test [15] concerns Lolium perenne (LOLPE). The test can be described thus: Example B pre-emergence herbicidal greenhouse test. The settings on record: 480 h, evaluated after 20 days, 100=total damage to plant, 0=no damage. The method in brief: as §2
In test [16] the test system is Setaria faberi (SETFA). The test can be described thus: Example B pre-emergence herbicidal greenhouse test. The settings on record: 480 h, evaluated after 20 days, 100=total damage to plant, 0=no damage. The method in brief:
as §2

Test [17] has as its system Alopecurus myosuroides (ALOMY). Briefly: Example B post-emergence herbicidal greenhouse test. The settings on record: 360 h, evaluated after 15 days, 100=total damage to plant, 0=no damage. The method in brief:
as §2

The subject of test [18] is Avena fatua (AVEFA). The test is described as above. The settings on record: 360 h, evaluated after 15 days, 100=total damage to plant, 0=no damage. In a few lines:
as §2

Test [19] relates to Digitaria sanguinalis (DIGSA). Described as above. The settings on record: 360 h, evaluated after 15 days, 100=total damage to plant, 0=no damage. The method in brief: as §2
Test [20] concerns Echinochloa crus-galli (ECHCG). The description is as above. The settings on record: 360 h, evaluated after 15 days, 100=total damage to plant, 0=no damage. In a few lines: as §2
For test [21], the system named is Lolium perenne (LOLPE). The test is described as above. The settings on record: 360 h, evaluated after 15 days, 100=total damage to plant, 0=no damage. The method in brief:
as §2

Test [22] deals with Setaria faberi (SETFA). The description is as above. The settings on record: 360 h, evaluated after 15 days, 100=total damage to plant, 0=no damage. The method in brief: as §2

Each structure is given as a SMILES string.

With `CCc1ccc(-c2ccc(Cl)cc2F)cc1C1=C(O)[C@H]2CC[C@H](C2)C1=O` (single isomer, unassigned) [Compound T41], the pest or weed control at 250 g/ha in test [1] is 60%; in test [2], 0%; in the test on Avena fatua (AVEFA) [3] it was 100%; in test [4], 90%; with Setaria faberi (SETFA) [5], 100%; in test [6], 60%. The pest or weed control at 250 g/ha in [7] was 0%; with Avena fatua (AVEFA) [8], 100%; in [9] it was 100%; in the test on Setaria faberi (SETFA) [10], 100%; in [11], 90%; in the test on Avena fatua (AVEFA) [12], 60%. In addition, the pest or weed control at 250 g/ha (in test [13]; in [14]; in the test on Lolium perenne (LOLPE) [15]; with Setaria faberi (SETFA) [16]) was 100% in each case. The pest or weed control at 125 g/ha worked out at 80% in test [17]; 100% with Avena fatua (AVEFA) [18]; 100% in [19]; 100% in [20]; 70% in the test with Lolium perenne (LOLPE) [21]; 100% with Setaria faberi (SETFA) [22].
Turning to `CCc1ccc(-c2ccc(Cl)cc2OC)cc1C1=C(O)[C@H]2CC[C@H](C2)C1=O` (single isomer, unassigned) [Compound T43], the pest or weed control at 250 g/ha in test [1] stood at 0%; in test [2] it was 0%; in the test on Avena fatua (AVEFA) [3] it was 0%; in [4], 90%; with Setaria faberi (SETFA) [5], 30%; in test [6], 50%. Besides, the pest or weed control at 250 g/ha stood at 0% in [7]; 40% in the test on Avena fatua (AVEFA) [8]; 90% in [9]; 80% with Setaria faberi (SETFA) [10]; 0% in test [11]; 60% with Avena fatua (AVEFA) [12]. For the same compound, the pest or weed control at 250 g/ha in [13] is 60%; in test [14] it was 40%; in the test with Lolium perenne (LOLPE) [15], 0%; in the test on Setaria faberi (SETFA) [16], 20%. The pest or weed control at 125 g/ha in [17] stood at 0%; with Avena fatua (AVEFA) [18] it was 0%; in test [19], 50%; in test [20], 70%; with Lolium perenne (LOLPE) [21], 30%; in the test with Setaria faberi (SETFA) [22], 60%.
In the case of `CCc1ccc(-c2ccc(Cl)cc2)cc1C1=C(O)[C@H]2C=C[C@H](CC2)C1=O` (single isomer, unassigned) [Compound T55], the pest or weed control at 250 g/ha in test [1] was 0%; in [2] it was 0%; in the test on Avena fatua (AVEFA) [3], 0%; in [4], 70%; in the test with Setaria faberi (SETFA) [5], 90%; in [6], 50%. Moreover, the pest or weed control at 250 g/ha in test [7] was 0%; with Avena fatua (AVEFA) [8], 20%; in [9], 100%; with Setaria faberi (SETFA) [10], 100%; in [11], 10%; in the test with Avena fatua (AVEFA) [12], 30%. Moreover, the pest or weed control at 250 g/ha stood at 30% in [13], 50% in test [14], 60% with Lolium perenne (LOLPE) [15] and 10% in the test with Setaria faberi (SETFA) [16]. Further, the pest or weed control at 125 g/ha in [17] was found to be 60%; in the test with Avena fatua (AVEFA) [18] it was 70%; in test [19], 100%; in test [20], 100%; with Lolium perenne (LOLPE) [21], 80%; in the test with Setaria faberi (SETFA) [22], 100%.
Consider `CCc1cc(-c2ccc(Cl)cc2)ccc1C1=C(OC(C)=O)[C@@H]2CC[C@@H](C2)C1=O` [Compound P3], for which the pest or weed control at 250 g/ha in test [1] stood at 60%; in test [2], 0%; in the test on Avena fatua (AVEFA) [3] it was 40%; in [4], 70%; in the test with Setaria faberi (SETFA) [5] it was 80%; in test [6] it was 90%. In addition, the pest or weed control at 250 g/ha in [7] was 0%; in the test with Avena fatua (AVEFA) [8], 80%; in test [9] it was 100%; with Setaria faberi (SETFA) [10], 100%; in test [11], 30%; with Avena fatua (AVEFA) [12], 10%. The pest or weed control at 250 g/ha in test [13] came out at 70%; in [14], 50%; with Lolium perenne (LOLPE) [15], 50%; with Setaria faberi (SETFA) [16], 60%. Further, the pest or weed control at 125 g/ha in [17] was found to be 90%; in the test with Avena fatua (AVEFA) [18], 80%; in [19], 90%; in test [20] it was 80%; in the test on Lolium perenne (LOLPE) [21], 80%; in the test with Setaria faberi (SETFA) [22], 80%.
For `CCc1ccc(-c2ccc(Cl)c(C)c2)cc1C1=C(O)[C@H]2CC[C@H](C2)C1=O` [Compound T32, 3-(4′-chloro-4-ethyl-3′-methylbiphen-3-yl)bicyclo[3.2.1]octane-2,4-dione], the pest or weed control at 250 g/ha in test [1] was found to be 30%; in test [2] it was 0%; with Avena fatua (AVEFA) [3], 40%; in test [4], 100%; with Setaria faberi (SETFA) [5], 20%; in [6] it was 60%. The pest or weed control at 250 g/ha turned out to be 0% in test [7]; 0% in the test with Avena fatua (AVEFA) [8]; 100% in test [9]; 90% in the test on Setaria faberi (SETFA) [10]; 90% in test [11]; 10% in the test on Avena fatua (AVEFA) [12]. Further, the pest or weed control at 250 g/ha was found to be 100% in test [13], 100% in test [14], 90% in the test with Lolium perenne (LOLPE) [15] and 60% in the test with Setaria faberi (SETFA) [16]. In addition, the pest or weed control at 125 g/ha in test [17] is 30%; in the test on Avena fatua (AVEFA) [18] it was 10%; in test [19], 70%; in test [20], 100%; in the test on Lolium perenne (LOLPE) [21] it was 0%; with Setaria faberi (SETFA) [22], 30%.
